Key:
[1] = molecular target: mGluR5 (Rattus norvegicus, UniProt P31424); test: IC50 column under 'Biological Activity' (assay not identified in the shown text; not the binding Ki)
[2] = molecular target: T1, rat mGluR5 receptor (Rattus norvegicus, UniProt P31424); test: [3H]-MPEP displacement binding assay, HEK-293 cell membranes expressing rat mGluR5; settings: [3H]-MPEP displacement, rat mGluR5; read-out: Median Ki
T1 construct: expressed in transfected cells; host or cells: HEK-293
How it was run: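 Membranes from HEK-293 cells expressing rat mGluR5 (12-25 μg protein), incubated 60 min at room temperature with 4 nM [3H]-MPEP in 50 mM Tris pH 7.5, then filtered. Nonspecific binding defined with 10 μM MPEP.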

T1 sequence (P31424 21-1203): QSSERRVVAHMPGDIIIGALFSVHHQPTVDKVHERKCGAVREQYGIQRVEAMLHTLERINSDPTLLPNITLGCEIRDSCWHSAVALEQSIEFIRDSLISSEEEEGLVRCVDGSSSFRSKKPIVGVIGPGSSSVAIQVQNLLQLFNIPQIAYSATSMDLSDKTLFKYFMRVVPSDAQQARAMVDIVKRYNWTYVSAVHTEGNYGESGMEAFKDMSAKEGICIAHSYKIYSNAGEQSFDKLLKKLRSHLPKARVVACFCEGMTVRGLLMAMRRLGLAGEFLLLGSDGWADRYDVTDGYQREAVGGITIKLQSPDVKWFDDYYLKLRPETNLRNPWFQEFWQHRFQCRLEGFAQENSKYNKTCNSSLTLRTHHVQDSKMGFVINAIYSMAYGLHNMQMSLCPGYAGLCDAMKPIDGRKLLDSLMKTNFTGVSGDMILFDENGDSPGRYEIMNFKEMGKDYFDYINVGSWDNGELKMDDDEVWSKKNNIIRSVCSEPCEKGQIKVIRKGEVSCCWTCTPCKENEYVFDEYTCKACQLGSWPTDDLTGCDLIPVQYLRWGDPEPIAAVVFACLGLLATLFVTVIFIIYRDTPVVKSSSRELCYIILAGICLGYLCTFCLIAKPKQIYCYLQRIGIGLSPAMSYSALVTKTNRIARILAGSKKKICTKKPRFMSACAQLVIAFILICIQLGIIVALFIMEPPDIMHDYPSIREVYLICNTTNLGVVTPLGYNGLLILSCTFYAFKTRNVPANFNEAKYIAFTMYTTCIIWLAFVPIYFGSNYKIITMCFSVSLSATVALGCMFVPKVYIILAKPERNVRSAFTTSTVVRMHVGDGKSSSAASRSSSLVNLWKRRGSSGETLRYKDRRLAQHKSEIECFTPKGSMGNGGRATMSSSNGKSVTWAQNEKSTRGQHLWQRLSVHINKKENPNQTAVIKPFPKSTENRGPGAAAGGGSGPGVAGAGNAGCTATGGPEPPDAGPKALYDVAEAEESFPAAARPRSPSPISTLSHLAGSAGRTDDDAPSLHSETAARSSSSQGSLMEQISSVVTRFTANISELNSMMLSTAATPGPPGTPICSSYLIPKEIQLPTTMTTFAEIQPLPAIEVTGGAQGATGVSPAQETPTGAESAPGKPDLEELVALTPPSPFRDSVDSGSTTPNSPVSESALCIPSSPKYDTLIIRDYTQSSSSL
Chain of mGluR5 (P31424 21-1203): as above

| SMILES | IC50 [1] | Ki [2] |
| --- | --- | --- |
| COc1ccc(C(=O)N2CCN(c3ccc([N+](=O)[O-])cc3)CC2)cc1C#Cc1ccccn1 [Compound 232, 1-[4-methoxy-3-(pyridin-2-ylethynyl)benzoyl]-4-(4-nitrophenyl)piperazine] | > 1 µM | 0.096 µM |
| COc1ccc(N2CCN(C(=O)c3ccc(OC)c(C#Cc4ccccn4)c3)CC2)cc1 [Compound 233, 1-(4-methoxyphenyl)-4-[4-methoxy-3-(pyridin-2-ylethynyl)benzoyl]piperazine] | > 1 µM | 0.066 µM |
| COc1ccc(C(=O)N2CCN(S(=O)(=O)c3ccc4c(c3)OCCO4)CC2)cc1C#Cc1ccccn1 [Compound 235, 1-(2,3-dihydro-1,4-benzodioxin-6-ylsulfonyl)-4-[4-methoxy-3-(pyridin-2-ylethynyl)benzoyl]piperazine] | > 1 µM | 0.075 µM |
| COc1ccc(C(=O)N2CCN(c3ccncc3)CC2)cc1C#Cc1ccccn1 [Compound 236, 1-[4-methoxy-3-(pyridin-2-ylethynyl)benzoyl]-4-pyridin-4-ylpiperazine] | > 1 µM | 0.078 µM |
| COc1ccc(C(=O)N2CCN(c3ccc(C(C)=O)cc3)CC2)cc1C#Cc1ccccn1 [Compound 237, 1-(4-{4-[4-methoxy-3-(pyridin-2-ylethynyl)benzoyl]piperazin-1-yl}phenyl)ethanone] | 0.119 µM | 0.021 µM |
| COc1cccc(N2CCN(C(=O)c3ccc(OC)c(C#Cc4ccccn4)c3)CC2)c1 [Compound 241, 1-(3-methoxyphenyl)-4-[4-methoxy-3-(pyridin-2-ylethynyl)benzoyl]piperazine] | 0.081 µM | 0.015 µM |
| COc1ccc(C(=O)N2CCN(S(=O)(=O)c3ccc(Cl)cc3)CC2)cc1C#Cc1ccccn1 [Compound 243, 1-[(4-chlorophenyl)sulfonyl]-4-[4-methoxy-3-(pyridin-2-ylethynyl)benzoyl]piperazine] | 0.154 µM | 0.014 µM |
| COc1ccc(C(=O)N2CCN(C(=O)c3ccccc3)CC2)cc1C#Cc1ccccn1 [Compound 244, 1-benzoyl-4-[4-methoxy-3-(pyridin-2-ylethynyl)benzoyl]piperazine] | 0.237 µM | 0.054 µM |
| CCS(=O)(=O)N1CCN(C(=O)c2ccc(OC)c(C#Cc3ccccn3)c2)CC1 [Compound 245, 1-(ethylsulfonyl)-4-[4-methoxy-3-(pyridin-2-ylethynyl)benzoyl]piperazine] | 0.344 µM | 0.231 µM |
| COc1ccc(C(=O)N2CCN(c3nccs3)CC2)cc1C#Cc1ccccn1 [Compound 247, 1-[4-methoxy-3-(pyridin-2-ylethynyl)benzoyl]-4-(1,3-thiazol-2-yl)piperazine] | 0.085 µM | 0.017 µM |
| COc1ccc(C(=O)N2CCN(C(=O)C3CC3)CC2)cc1C#Cc1ccccn1 [Compound 248, 1-(cyclopropylcarbonyl)-4-[4-methoxy-3-(pyridin-2-ylethynyl)benzoyl]piperazine] | > 1 µM | 0.083 µM |
| COc1ccc(C(=O)N2CCN(c3ccccc3)CC2C)cc1C#Cc1ccccn1 (stereo not drawn) [Compound 250, 1-[4-methoxy-3-(pyridin-2-ylethynyl)benzoyl]-2-methyl-4-phenylpiperazine] | 0.096 µM | 0.024 µM |
| COc1ccc(C(=O)N2CCN(c3noc4ccccc34)CC2)cc1C#Cc1ccccn1 [Compound 251, 3-{4-[4-methoxy-3-(pyridin-2-ylethynyl)benzoyl]piperazin-1-yl}-1,2-benzisoxazole] | 0.025 µM | 0.006 µM |
| COc1ccc(C(=O)N2CCN(c3ccc(C#N)cn3)CC2)cc1C#Cc1ccccn1 [Compound 252, 6-{4-[4-methoxy-3-(pyridin-2-ylethynyl)benzoyl]piperazin-1-yl}nicotinonitrile] | 0.192 µM | 0.033 µM |
| COc1ccc(C(=O)N2CCN(S(=O)(=O)c3ccc(C)cc3)CC2)cc1C#Cc1ccccn1 [Compound 253, 1-[4-methoxy-3-(pyridin-2-ylethynyl)benzoyl]-4-[(4-methylphenyl)sulfonyl]piperazine] | 0.18 µM | 0.021 µM |
| COc1ccc(C(=O)N2CCN(c3cccc(Cl)n3)CC2)cc1C#Cc1ccccn1 [Compound 255, 1-(6-chloropyridin-2-yl)-4-[4-methoxy-3-(pyridin-2-ylethynyl)benzoyl]piperazine] | 0.129 µM | 0.009 µM |
| COc1ccc(C(=O)N2CCN(c3nc4ccccc4o3)CC2)cc1C#Cc1ccccn1 [Compound 257, 2-{4-[4-methoxy-3-(pyridin-2-ylethynyl)benzoyl]piperazin-1-yl}-1,3-benzoxazole] | 0.11 µM | 0.038 µM |
| COc1ccc(C(=O)N2CCN(C(=O)c3ccco3)CC2)cc1C#Cc1ccccn1 [Compound 258, 1-(2-furoyl)-4-[4-methoxy-3-(pyridin-2-ylethynyl)benzoyl]piperazine] | 0.095 µM | 0.041 µM |

| SMILES | IC50 [1] | Ki [2] |
| --- | --- | --- |
| COc1ccc(C(=O)N2CCN(Cc3ccc4c(c3)OCO4)CC2)cc1C#Cc1ccccn1 [Compound 259, 1-(1,3-benzodioxol-5-ylmethyl)-4-[4-methoxy-3-(pyridin-2-ylethynyl)benzoyl]piperazine] | 0.157 µM | 0.038 µM |
| COc1ccc(C(=O)N2CCN(c3ncc(Br)cn3)CC2)cc1C#Cc1ccccn1 [Compound 262, 5-bromo-2-{4-[4-methoxy-3-(pyridin-2-ylethynyl)benzoyl]piperazin-1-yl}pyrimidine] | 0.148 µM | 0.017 µM |
| COc1ccc(C(=O)N2CCN(C(=O)c3ccc(OC)c(C#Cc4ccccn4)c3)CC2)cc1 [Compound 265, 1-(4-methoxybenzoyl)-4-[4-methoxy-3-(pyridin-2-ylethynyl)benzoyl]piperazine] | > 1 µM | 0.054 µM |
| COc1ccc(C(=O)N2CCN(Cc3ccccc3F)CC2)cc1C#Cc1ccccn1 [Compound 266, 1-(2-fluorobenzyl)-4-[4-methoxy-3-(pyridin-2-ylethynyl)benzoyl]piperazine] | > 1 µM | 0.033 µM |
| COc1ccc(C(=O)N2CCN(Cc3cccc(F)c3)CC2)cc1C#Cc1ccccn1 [Compound 267, 1-(3-fluorobenzyl)-4-[4-methoxy-3-(pyridin-2-ylethynyl)benzoyl]piperazine] | 0.167 µM | 0.057 µM |
| COc1ccc(C(=O)N2CCN(Cc3ccc(F)cc3)CC2)cc1C#Cc1ccccn1 [Compound 268, 1-(4-fluorobenzyl)-4-[4-methoxy-3-(pyridin-2-ylethynyl)benzoyl]piperazine] | 0.219 µM | 0.057 µM |
| COc1ccc(C(=O)N2CCN(Cc3cccc(Cl)c3)CC2)cc1C#Cc1ccccn1 [Compound 274, 1-(3-chlorobenzyl)-4-[4-methoxy-3-(pyridin-2-ylethynyl)benzoyl]piperazine] | 0.316 µM | 0.089 µM |
| COc1ccc(C(=O)N2CCN(Cc3ccc(Cl)cc3)CC2)cc1C#Cc1ccccn1 [Compound 275, 1-(4-chlorobenzyl)-4-[4-methoxy-3-(pyridin-2-ylethynyl)benzoyl]piperazine] | 0.144 µM | 0.017 µM |
| COc1ccc(C(=O)N2CCN(Cc3ccc(Cl)cc3Cl)CC2)cc1C#Cc1ccccn1 [Compound 280, 1-(2,4-dichlorobenzyl)-4-[4-methoxy-3-(pyridin-2-ylethynyl)benzoyl]piperazine] | 0.317 µM | 0.043 µM |
| COc1ccc(C(=O)N2CCN(Cc3ccc(Br)cc3F)CC2)cc1C#Cc1ccccn1 [Compound 285, 1-(4-bromo-2-fluorobenzyl)-4-[4-methoxy-3-(pyridin-2-ylethynyl)benzoyl]piperazine] | 0.326 µM | 0.007 µM |
| COc1ccc(C(=O)N2CCN(S(=O)(=O)c3ccc4ccccc4c3)CC2)cc1C#Cc1ccccn1 [Compound 287, 1-[4-methoxy-3-(pyridin-2-ylethynyl)benzoyl]-4-(2-naphthylsulfonyl)piperazine] | > 1000 µM | 0.07 µM |
| COc1ccc(C(=O)N2CCN(c3ccccc3)CC2)cc1C#Cc1ccccn1 [Compound 292, 1-[4-methoxy-3-(pyridin-2-ylethynyl)benzoyl]-4-phenylpiperazine] | 0.208 µM | 0.014 µM |
| COc1ccc(C(=O)N2CCN(c3ncc(C#N)c(N)n3)CC2)cc1C#Cc1ccccn1 [Compound 293, 4-Amino-2-(4-(4-methoxy-3-(pyridin-2-ylethynyl)benzoyl)piperazin-1-yl)pyrimidine-5-carbonitrile] | > 1 µM | 0.058 µM |
| COc1ccc(C(=O)N2CCN(c3ccnc(SC)n3)CC2)cc1C#Cc1ccccn1 [Compound 296, 4-{4-[4-methoxy-3-(pyridin-2-ylethynyl)benzoyl]piperazin-1-yl}-2-(methylthio)pyrimidine] | > 1 µM | 0.022 µM |
| COc1ccc(C(=O)N2CCN(c3ncc(F)cn3)CC2)cc1C#Cc1ccccn1 [Compound 298, 5-fluoro-2-{4-[4-methoxy-3-(pyridin-2-ylethynyl)benzoyl]piperazin-1-yl}pyrimidine] | 0.102 µM | 0.033 µM |
| COc1cnc(N2CCN(C(=O)c3ccc(OC)c(C#Cc4ccccn4)c3)CC2)nc1 [Compound 299, 5-methoxy-2-{4-[4-methoxy-3-(pyridin-2-ylethynyl)benzoyl]piperazin-1-yl}pyrimidine] | 0.119 µM | 0.025 µM |
| COc1ccc(C(=O)N2CCN(c3ncc(F)c(N)n3)CC2)cc1C#Cc1ccccn1 [Compound 300, 5-fluoro-2-{4-[4-methoxy-3-(pyridin-2-ylethynyl)benzoyl]piperazin-1-yl}pyrimidin-4-amine] | 0.198 µM | 0.03 µM |
| COc1ccc(N2CCN(C(=O)c3ccc(OC)c(C#Cc4ccccn4)c3)CC2)nn1 [Compound 301, 3-methoxy-6-{4[4-methoxy-3-(pyridin-2-ylethynyl)benzoyl]piperazin-1-yl}pyridazine] | 0.204 µM | 0.083 µM |

— US20090325964A1, “Piperazine Metabotropic Glutamate Receptor 5 (MGLUR5) Negative Allosteric Modulators For Anxiety/Depression” (Wyeth, priority 2008, published 2009)
